The values below come from paper PMC9697446 (International Journal of Molecular Sciences, 2022).

One assay deals with AChE (Homo sapiens, UniProt P22303). As to the kind of experiment: Kinetic analysis of AChE inhibition, steady-state inhibition constants. In kind it is biochemical. The settings on record: for AChE inhibition constant αKi (noncompetitive component) / Ki: Lineweaver–Burk analysis; for Ki: read-out: AChE inhibition constant Ki (competitive component); for Mechanism of AChE inhibition: Lineweaver–Burk double reciprocal plot. How it is done: . The results were analyzed using the Lineweaver–Burk double reciprocal plot, and the graphical analysis of the kinetic data is shown in Figure 1. […]. To elucidate the inhibition mechanisms for the active compounds, the residual activity of AChE was determined in the presence of three increasing concentrations of the test compounds and six decreasing concentrations of the substrates. The test compounds were preincubated with the enzyme at 25 °C for 5 min, followed by the addition of the substrates. Parallel controls were made for an assay of the rate of hydrolysis of the same concentrations of substrates in the solutions with no inhibitor. The kinetic parameters of substrate hydrolysis were determined. Measurements were performed with a FLUOStar Optima microplate reader. Each experiment was performed in triplicate.

Assay [1] relates to isolated rat liver mitochondria. As to the kind of experiment: Bypass of rotenone (complex I) inhibition, mitochondrial repolarization. In kind it is biochemical. The settings on record: mitochondria energized by glutamate/malate, rotenone added. How it is done:
The ability to bypass complex I inhibition was determined for MB, its reduced form MBH2, and compound 4i (Figure 4).
The addition of rotenone to mitochondria energized by complex I substrates (glutamate/malate) causes considerable depolarization.
Safranine O (10 µM) was used as a membrane potential probe. Fluorescence intensity at 580 nm (excitation at 520 nm) was measured with a Wallac Victor 3 1420 Multilabel Counter (Perkin Elmer, Turku, Finland). The mitochondrial protein concentration was 0.2 mg/mL. The medium for measurements contained 75 mM sucrose, 225 mM mannitol, 10 mM K-HEPES (pH 7.4), 0.02 mM EGTA, and 1 mM KH2PO4. After a 5-min incubation, 5 mM glutamate/malate or 5 mM succinate in the presence of 0.5 µM rotenone were added to produce the mitochondrial potential. Then, the compounds (30 µM) or the same volume of the vehicle (DMSO) were injected into the mitochondrial suspension. After 15–20 min, 12.5 µM CaCl2 was added to each sample to induce the depolarization of mitochondria, and after 5 min, 0.5 µM CCCP was added for maximum depolarization of the mitochondria. The level of depolarization (ΔΨm) was calculated using the fluorescence value after 10-min incubation with 30 µM of compounds (or vehicle) normalized between the fluorescence measurements after substrate and CCCP addition, where fluorescence intensity at 580 nm was 100% after substrate addition and was 0% after CCCP addition.

Assay [2] has as its target T1, NMDA receptor intrachannel site ([3H]MK-801) (Rattus norvegicus, UniProt P35439).
T1 construct: from tissue; host or cells: rat brain membranes
Description: Radioligand binding, [3H]MK-801 site of the NMDA receptor. How it is done:
(§1) The experiments were carried out using a rat brain membrane fraction.
(§2) The effect of test compounds on the radioligand binding to NMDA receptors was determined as previously described. Two radioactive ligands were used: [^3H] […] A pellet of rat brain membrane specimen was resuspended in a working buffer (5 mM HEPES/4.5 mM Tris buffer, pH 7.6) in a ratio of 1:5 and stored in liquid nitrogen. The reaction mixture (with a final volume of 0.5 mL) contained 200 µL of the working buffer, 50 µL of 50 nM radioligand solution, and 250 µL of the membrane suspension. Nonspecific binding was determined in the presence of 50 µL of […] of unlabeled ligand.
(§3) For the binding study, the reaction mixture was incubated at room temperature for 2 h. After incubation, the samples were filtered through GF/B glass-fiber filters (Whatman), washed with the working buffer, dried, and transferred to scintillation vials, and then 5 mL of scintillation fluid was added to the vials containing 4 g of diphenyloxazole (PPO), 0.2 g of diphenyloxazoil benzene (POPOP), and 1 L of toluene.
(§4) The effect of the test compounds on the binding of [^3H]

Assay [3] has as its target T2, NMDA receptor peripheral site ([3H]ifenprodil) (Rattus norvegicus, UniProt P35439+Q00960).
T2 construct: from tissue; host or cells: rat brain membranes
As to the kind of experiment: Radioligand binding, [3H]ifenprodil site of the NMDA receptor. On the procedure: as §1, §2, §3, §4

The target in a further assay is T3, tubulin (Sus scrofa, UniProt P02550+P02554).
T3 construct: purchased Cytoskeleton, Inc. HTS-Tubulin polymerization assay kit
Description: Tubulin polymerization (microtubule assembly). The class given is biochemical. The settings on record: for Tubulin polymerization rate, % of control at 100 µM: read-out: Tubulin polymerization rate (dA355/dt), % Control; for Increase in the rate of tubulin polymerization: 100 µM. On the procedure: The assembly of tubulin into microtubules was carried out using pure tubulin from an HTS-Tubulin polymerization assay kit (Cytoskeleton, Inc., Denver, CO, USA). A standard polymerization reaction used 100 μL of 4 mg/mL tubulin in 80 mM PIPES (pH 6.9), 0.5 mM EGTA, 2 mM MgCl2, and 1 mM GTP. Polymerization was monitored by recording the change in absorbance on a Wallac Victor 3 1420 Multilabel Counter (Perkin Elmer, Turku, Finland) at λ = 3 55 nm. Electron microscopic monitoring was carried out with a Carl Zeiss Libra 120 electron microscope (Carl Zeiss Meditec AG, Jena, Germany) at 120 kV using negative contrasting.

In assay [4] the test system is primary culture of rat cerebellar granule cells (CGC). Description: Ionomycin-induced toxicity in cerebellar granule cells, MTT assay. The class given is cell-based. The settings on record: ionomycin 3 µM. On the procedure:
This neurotoxicity model reflects the calcium stress involved with several types of insults, such as amyloid toxicity, excitotoxicity, and ischemic damage. The viability of the primary culture of rat cerebellar granule cells (CGC) and brain cortical neurons (BCN) was assessed by the MTT assay in the presence of various concentrations of compound 4i.
Cerebellar granule cells (CGC) and brain cortical neurons (BCN) were isolated from P-7 or P0-2 rat’s pups, respectively, using a previously described protocol. Once removed, cerebella or brain cortex were digested for 15 min in 0.025% type II trypsin (w/v) at 37 °C. Ice-cold DMEM containing 5% (w/v) fetal bovine serum was added to inactivate the trypsin. […] After 8-10 day in culture the cells were incubated with a test compound or an equal volume of the DMSO (<1% (v/v) of the whole volume of the medium under the layer of cells and 3 µM ionomycin for 24 h. The cell viability was then evaluated as the dehydrogenase activity with the 3-(4,5-dimethylthiazol-2-yl)-2,5-diphenyltetrazolium bromide (MTT) assay. The absorbance was measured at 570 nm using a Victor microplate reader (Perkin Elmer), and data were normalized with intact control assumed 100%.
(In general: Formazan colour is commonly taken as a measure of viable cells.)

The test system of assay [5] is isolated rat liver mitochondria. As to the kind of experiment: Mitochondrial membrane potential and calcium-induced depolarization (safranine O). The class given is biochemical. The settings on record: complex I inhibitor rotenone and a substrate of RC complex II.
Where [6] appears, read: 100 µM compound, means ± SEM (n = 6).

For orientation: Ki means the equilibrium dissociation constant of an inhibitor or competing ligand from its target. In general, IC50 refers to the midpoint of a concentration-inhibition curve. Read a low IC50 as greater potency.

AChE, sequence (P22303 32-588 isoform P22303-2): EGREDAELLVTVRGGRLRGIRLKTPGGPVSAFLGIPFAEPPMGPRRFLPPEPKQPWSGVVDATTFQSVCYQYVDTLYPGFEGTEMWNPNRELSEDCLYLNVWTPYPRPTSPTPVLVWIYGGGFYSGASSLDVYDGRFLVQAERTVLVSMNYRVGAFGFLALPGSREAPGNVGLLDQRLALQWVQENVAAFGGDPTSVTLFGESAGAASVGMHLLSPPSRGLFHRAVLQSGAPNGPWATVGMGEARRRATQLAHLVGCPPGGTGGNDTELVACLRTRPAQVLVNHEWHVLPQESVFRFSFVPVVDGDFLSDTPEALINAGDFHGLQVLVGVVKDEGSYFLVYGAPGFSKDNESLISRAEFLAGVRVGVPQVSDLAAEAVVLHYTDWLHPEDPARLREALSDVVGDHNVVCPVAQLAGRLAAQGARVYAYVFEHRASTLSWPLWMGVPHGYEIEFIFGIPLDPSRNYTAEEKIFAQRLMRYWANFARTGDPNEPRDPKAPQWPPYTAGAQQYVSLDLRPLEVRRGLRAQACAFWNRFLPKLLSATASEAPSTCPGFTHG
T3 sequence (P02550 whole entry): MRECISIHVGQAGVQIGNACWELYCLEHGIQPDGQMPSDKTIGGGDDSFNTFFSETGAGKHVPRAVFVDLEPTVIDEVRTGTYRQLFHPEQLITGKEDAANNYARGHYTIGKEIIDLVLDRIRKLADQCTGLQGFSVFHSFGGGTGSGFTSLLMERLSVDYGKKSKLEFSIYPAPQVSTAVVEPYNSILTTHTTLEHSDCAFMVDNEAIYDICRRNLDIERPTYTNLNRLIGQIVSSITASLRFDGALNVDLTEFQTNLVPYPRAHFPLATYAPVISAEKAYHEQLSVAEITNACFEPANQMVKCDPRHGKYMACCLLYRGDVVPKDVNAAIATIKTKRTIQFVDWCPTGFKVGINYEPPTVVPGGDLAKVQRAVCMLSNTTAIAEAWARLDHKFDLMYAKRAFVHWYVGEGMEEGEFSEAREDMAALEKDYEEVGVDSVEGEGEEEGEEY
T3 sequence (P02554 whole entry): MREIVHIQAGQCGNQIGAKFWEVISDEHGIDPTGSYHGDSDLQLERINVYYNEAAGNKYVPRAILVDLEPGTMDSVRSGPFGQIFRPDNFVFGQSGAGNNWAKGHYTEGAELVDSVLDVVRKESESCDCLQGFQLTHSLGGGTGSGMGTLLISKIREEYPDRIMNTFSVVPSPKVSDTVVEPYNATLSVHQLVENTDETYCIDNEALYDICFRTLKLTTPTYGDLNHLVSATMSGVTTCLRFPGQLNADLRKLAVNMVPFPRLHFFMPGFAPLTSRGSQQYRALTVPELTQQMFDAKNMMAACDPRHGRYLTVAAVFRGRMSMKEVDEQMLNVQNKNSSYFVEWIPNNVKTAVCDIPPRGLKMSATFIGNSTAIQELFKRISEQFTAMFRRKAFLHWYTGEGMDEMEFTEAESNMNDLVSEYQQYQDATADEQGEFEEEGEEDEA
T2 sequence (Q00960 27-1482, other chains not shown): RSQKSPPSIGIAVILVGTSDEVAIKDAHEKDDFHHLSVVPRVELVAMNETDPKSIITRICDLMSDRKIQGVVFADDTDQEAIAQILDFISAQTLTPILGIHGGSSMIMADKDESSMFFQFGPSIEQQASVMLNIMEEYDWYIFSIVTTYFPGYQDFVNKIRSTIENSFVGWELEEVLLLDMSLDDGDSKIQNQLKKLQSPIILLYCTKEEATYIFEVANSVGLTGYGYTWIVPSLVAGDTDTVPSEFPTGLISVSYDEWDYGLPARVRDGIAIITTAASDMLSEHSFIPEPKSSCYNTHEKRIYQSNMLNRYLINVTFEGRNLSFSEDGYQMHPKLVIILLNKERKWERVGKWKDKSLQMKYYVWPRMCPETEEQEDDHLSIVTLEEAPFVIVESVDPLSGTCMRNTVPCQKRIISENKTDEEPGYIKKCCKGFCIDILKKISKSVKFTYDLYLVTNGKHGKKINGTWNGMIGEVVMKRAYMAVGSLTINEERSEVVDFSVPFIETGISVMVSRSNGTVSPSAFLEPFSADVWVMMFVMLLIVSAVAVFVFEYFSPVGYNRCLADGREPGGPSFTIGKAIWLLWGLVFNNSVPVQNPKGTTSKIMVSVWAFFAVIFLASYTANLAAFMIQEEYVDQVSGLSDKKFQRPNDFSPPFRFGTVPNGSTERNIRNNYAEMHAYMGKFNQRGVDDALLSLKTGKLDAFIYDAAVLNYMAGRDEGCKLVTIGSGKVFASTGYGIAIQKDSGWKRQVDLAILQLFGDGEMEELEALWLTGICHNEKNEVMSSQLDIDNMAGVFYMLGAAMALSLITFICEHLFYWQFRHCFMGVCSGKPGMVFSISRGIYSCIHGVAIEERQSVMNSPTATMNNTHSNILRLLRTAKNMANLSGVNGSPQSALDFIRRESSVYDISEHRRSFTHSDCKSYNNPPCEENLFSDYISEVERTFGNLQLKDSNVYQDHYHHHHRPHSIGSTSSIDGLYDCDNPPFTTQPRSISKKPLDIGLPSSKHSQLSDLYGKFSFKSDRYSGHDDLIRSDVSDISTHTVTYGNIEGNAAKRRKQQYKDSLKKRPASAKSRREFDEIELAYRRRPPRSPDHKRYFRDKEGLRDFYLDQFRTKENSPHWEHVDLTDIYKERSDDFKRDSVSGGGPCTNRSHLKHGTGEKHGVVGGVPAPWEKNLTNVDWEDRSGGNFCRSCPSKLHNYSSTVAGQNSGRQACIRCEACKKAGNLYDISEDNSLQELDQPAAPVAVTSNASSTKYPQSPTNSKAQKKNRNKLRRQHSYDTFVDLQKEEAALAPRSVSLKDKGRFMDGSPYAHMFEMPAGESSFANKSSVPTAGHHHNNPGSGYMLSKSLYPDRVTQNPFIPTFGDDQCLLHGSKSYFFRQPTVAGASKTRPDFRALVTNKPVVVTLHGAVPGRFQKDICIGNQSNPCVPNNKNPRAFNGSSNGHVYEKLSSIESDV

For `CC1CCc2c(c3cc(OC(F)(F)F)ccc3n2CCC(=O)N2c3ccc(N(C)C)cc3Sc3cc(N(C)C)ccc32)C1` (stereo not shown) [Compound 4i], on AChE, the “AChE inhibition constant αKi (noncompetitive component)” value (from here on “AChE inhibition constant αKi”) is recorded as 3.19 ± 0.10 µM, the Ki turned out to be 1.12 ± 0.05 µM and the “Mechanism of AChE inhibition” value is reported as “mixed type inhibition”. In assay [1], the “Repolarization of rotenone-depolarized mitochondria (bypass of complex I inhibition)” value is recorded as “exhibits this type of activity only in a 10 µM concentration”. Besides, in assay [2], the IC50 was 101 ± 9.2 µM. Also, the half-maximal inhibitory concentration (IC50) in assay [3] is 10.4 ± 1.2 µM. For the same compound, the “Structure of microtubules formed (electron microscopy)” value (shortened to “Structure of microtubules formed”) at tubulin was “straight, long microtubules with a normal structure”. On tubulin (setting [6]), the Tubulin polymerization rate, % of control at 100 µM was found to be 207 ± 5%. Also, the “Protection from ionomycin-induced toxicity, CGC” value in assay [4] was “statistically significant protection”.

Regarding `CN(C)c1ccc2c(c1)Sc1cc(N(C)C)ccc1N2C(=O)CCn1c2c(c3cc(OC(F)(F)F)ccc31)CCCC2` [Compound 4h], the IC50 in assay [2] amounted to 116 ± 10.1 µM; in assay [3], 61.3 ± 6.5 µM. The “Structure of microtubules formed” value on tubulin is “straight, long microtubules with a normal structure”. Further, the Tubulin polymerization rate, % of control at 100 µM at tubulin (setting [6]) is 179 ± 27%.

Regarding `Cc1ccc2c(c1)c1c(n2CCC(=O)N2c3ccc(N(C)C)cc3Sc3cc(N(C)C)ccc32)CCCC1` [Compound 4c], at AChE, the “AChE inhibition constant αKi” value was determined as 5.83 ± 0.31 µM, the inhibitory constant (Ki) came out at 1.98 ± 0.17 µM and the “Mechanism of AChE inhibition” value is “mixed type inhibition”.

As for `CN(C)c1ccc2c(c1)Sc1cc(N(C)C)ccc1N2` [MBH2, reference compound], the “Repolarization of rotenone-depolarized mitochondria (bypass of complex I inhibition)” value in assay [1] was “concentration-dependent repolarization”. In addition, the “Increase in the rate of tubulin polymerization” value at tubulin is on record as “more than 1.5 fold”. The “Tubulin polymerization rate (dA355/dt), % Control” value at tubulin (setting [6]) came out at 178 ± 11 % Control.

As for `CN(C)c1ccc2c(c1)Sc1cc(N(C)C)ccc1N2C(=O)CCn1c2c(c3ccccc31)CCCCCC2` [Compound 4m], at AChE, the “AChE inhibition constant αKi” value turned out to be 4.03 ± 0.15 µM, the inhibition constant Ki was 1.06 ± 0.04 µM and the “Mechanism of AChE inhibition” value is “mixed type inhibition”. Moreover, the “Effect on mitochondrial membrane potential at 1 μM, rotenone and complex II substrate” value in assay [5] is recorded as “induced mitochondrial depolarization”.

On to `CN(C)c1ccc2nc3ccc(=[N+](C)C)cc-3sc2c1` [MB, Methylene blue, reference compound], for which, in assay [1], the “Repolarization of rotenone-depolarized mitochondria (bypass of complex I inhibition)” value is reported as “concentration-dependent repolarization”. Also, on tubulin, the “Structure of microtubules formed” value is reported as “straight, long microtubules with a normal structure” and the “Increase in the rate of tubulin polymerization” value is given as “more than 1.5 fold”. In addition, the Tubulin polymerization rate, % of control at 100 µM on tubulin (setting [6]) is 168 ± 17%. Also, the “Effect on mitochondrial membrane potential at 1 μM, rotenone and complex II substrate” value in assay [5] is listed as “induced mitochondrial depolarization”.
